Test results taken from EP2050748A1, “Novel fused pyrimidines” (Bayer Schering Pharma Aktiengesellschaft, priority 2007, dated 2009).
pIC50: −log10 of the molar value.

Legend:
[1] = tested on: OvCAR3 cells; assay: Cellular proliferation / Cytotoxicity assay (Alamar Blue); type: cell-based; conditions: Homo sapiens, OVCAR-3, 48h incubation, Alamar Blue (Resazurin) cell viability, read-out: Anti-proliferative / Cytotoxic activity (OvCAR3 cells)
Description: The anti-proliferative activity of the compounds as described herein, is evaluated using the OvCAR3, HCT116 and A549 cell lines and the Alamar Blue (Resazurin) cell viability assay (O'Brien et al. Eur J Biochem 267, 5421-5426, 2000). Resazurin is reduced to the fluorescent resorufin by cellular dehydrogenase activity, correlating with viable, proliferating cells. Test compounds are dissolved as 10 mM solutions in DMSO and subsequently diluted. Cells like HCT116 or A549 cells were seeded into 96 well flat bottom plates at a density of 10000 cells/well (OvCAR3 cells), 1000 cells/well (HCT116 cells) or 2000 cells/well (A549 cells) in a volume of 200 µl/well. 24 hours after seeding, 1 µl each of the compound dilutions are added into each well of the 96 well plates. Each compound dilution is tested as at least as duplicates. Wells containing untreated control cells were filled with 200 µl DMEM (Dulbecco's Modified Eagle Medium) containing 0.5vol% v:v DMSO. The cells are then incubated with the substances for 48h at 37°C in a humidified atmosphere containing 5vol% CO2. To determine the viability of the cells, 20 µl of a Resazurin solution (90mg / l) are added. After 4h incubation at 37°C, the fluorescence is measured by extinction at ? = 544 nm and an emission of ? = 590 nm (Wallac Victor2; Perkin Elmer, USA). For the calculation of the cell viability, the emission value from untreated cells is set as 100% viability and the fluorescence intensity of treated cells are set in relation to the values of untreated cells. Viabilities are expressed as % values. The corresponding IC50 values of the compounds for cytotoxic activity are determined from the concentration-effect curves by means of non-linear regression. The analysis of the data is performed using a biostatistical program (GraphPad Prism, USA). Representative IC50 values for anti-proliferative / cytotoxic potency determined in the aforementioned assay follow from the following table, in which the numbers of the compound correspond to the numbers of the examples.

[2] = tested on: phosphorylated Akt protein (Ser473); assay: Cellular PI3K / Akt pathway assay (phospho-Akt ELISA); type: cell-based; conditions: Homo sapiens; MCF7 cells, stimulated with ß-Heregulin (20ng/ml), compound incubated 48h, phospho-Akt1 (Ser473) ELISA
Description: In order to study the cellular activity of the compounds according to the present invention, an Enzyme Linked Immunosorbent Assay (ELISA)-based assay has been used specific phospho-AKT. The assay is based on a Sandwich ELISA kit (PathScan™ Phospho-Akt1 (Ser473); Cell Signaling, USA; #7160).
The ELISA Kit detects endogenous levels of phosphorylated Akt protein. A phospho-Akt (Ser473) antibody (Cell Signaling, USA; #9271) has been coated onto the microwells. After incubation with cell lysates, the coated antibody captures the phosphorylated Akt protein. Following extensive washing, Akt1 monoclonal antibody (Cell Signaling, USA; #2967) is added to detect the captured phospho-Akt1 protein. HRP-linked anti-mouse antibody (HRP: horseradish peroxidase; Cell Signaling, USA; #7076) is then used to recognize the bound detection antibody. HRP substrate (= 3,3',5,5'-tetramethylbenzidine (TMB); Cell Signaling, USA; #7160) is added to develop colour. The magnitude of optical density for this developed color is proportional to the quantity of phosphorylated Akt protein.
MCF7 cells (ATCC HTB-22) are seeded into 96 well fate bottom plates at a density of 10000 cells/well. 24 hours after seeding, the cells are serum starved using low-serum medium (IMEM media including 0,1% charcoal treated FCS (FCS: fetal calf serum)). After 24 hours 1 µl each of the compound dilutions (test compounds were dissolved as 10 mM solutions in dimethylsulfoxide (DMSO) and subsequently diluted) are added into each well of the 96 well plates and incubated for 48h at 37°C in a humidified athmosphere containing 5% CO2. To stimulate Akt phosphorylation, ß-Heregulin (20ng/ml β-HRG) is added in parallel to the compounds. Wells containing unstimulated control cells (no β-Heregulin stimulation) are incubated with or without the diluted compound. Wells containing untreated control cells (no compound) are filled with medium containing 0.5% v:v DMSO and are or are not stimulated with β-Heregulin.
Cells are harvested and lysed with brief sonification in 1x x cell lysis buffer (20mM Tris (pH7.5), 150 mM NaCl, 1 mM ethylene diaminetetraacetate (EDTA), 1 mM ethylene glycolbis(2-aminoethyl)-N,N,N',N'-tetraacetic acid (EGTA), 1vol% Triton X-100, 2.5mM sodium pyrophosphate, 1 mM β-glycerolphosphate, 1 mM Na3VO4, 1 µg/ml leupeptin). The lysate is centrifuged for 10 min. at 4°C and the supernatant is transferred to a new tube. 100 µl of sample diluent (0.1vol% Tween-20, 0.1vol% sodium azide in phosphate buffered saline (PBS)) are added to a microcentrifuge tube and 100 µl of cell lysate are transferred into the tube and vortexed. 100 µl of each diluted cell lysate are added to the appropriate ELISA well, and incubated overnight at 4°C. The plates are washed 4 times with 1 x wash buffer (1 vol% tween-20, 0.33vol% thymol, in PBS). Next 100 µl of detection antibody (Akt1 (2H10) monoclonal detection antibody; Cell Signaling, USA; #2967) are added to each well and incubation continued for 1 h at 37°C. The washing procedure is repeated between each step. 100µl of secondary antibody (anti-mouse IgG HRP-linked antibody; Cell Signaling, USA; #7076) are added to each well and incubated for 30 min. at 37°C. Than, 100µl of TMB substrate (0.05% 3,3',5,5' tetramethylbenzidine, 0.1 % hydrogen peroxide, complex polypeptides in a buffered solution; Cell Signaling, USA; #7160) are added to each well and incubated for 30 min. at 25°C. Finally 100 µl of STOP solution (0.05vol% α and β unsaturated carbonyl compound) are added to each well and the plate are shaked gently. The absorbance is measured at λ=450 nm (Wallac Victor2; Perkin Elmer, USA) within 30 min. after adding the STOP solution. The analysis of the data is performed using a statistical program (Excel; Microsoft, USA). Preferred compounds show an inhibitory activity towards Akt phosphorylation below 10µM.

Row | pIC50 [2] | Structure (SMILES) | pIC50 [1]
1 | > 6.00 | c1ccc(-c2cn3ccnc3nc2-c2ccc(CN3CCC(c4nc(-c5ccccn5)n[nH]4)CC3)cc2)cc1 [Example 1, 6-phenyl-7-(4-{[4-(3-pyridin-2-yl-1,2,4-triazol-5-yl)piperidin-1-yl]methyl}phenyl)imidazo[1,2-a]pyrimidine] | < 6.00
2 | > 6.00 | c1ccc(-c2cn3ncnc3nc2-c2ccc(CN3CCC(c4n[nH]c(-c5ccccn5)n4)CC3)cc2)cc1 [Example 2, 6-phenyl-5-(4-([4-(5-pyridin-2-yl-1,2,4-triazol-3-yl)piperidin-1-yl]methyl}phenyl)[1,2,4]triazolo[1,5-a]pyrimidine] | < 6.00
3 | > 6.00 | Cc1nc2nc(-c3ccc(CN4CCC(c5n[nH]c(-c6ccccn6)n5)CC4)cc3)c(-c3ccccc3)cn2n1 [Example 3, 2-methyl-6-phenyl-5-(4-{[4-(5-pyridin-2-yl-1,2,4-triazol-3-yl)piperidin-1-yl]methyl}phenyl)[1,2,4]triazolo[1,5-a]pyrimidine] | > 6.00
4 | > 6.00 | c1ccc(-c2cn3nc(C4CC4)nc3nc2-c2ccc(CN3CCC(c4n[nH]c(-c5ccccn5)n4)CC3)cc2)cc1 [Example 4, 2-cyclopropyl-6-phenyl-5-(4-{[4-(5-pyridin-2-yl-1,2,4-triazol-3-yl)piperidin-1-yl]methyl}phenyl)[1,2,4]triazolo[1,5-a]pyrimidine] | > 6.00
5 | > 6.00 | c1ccc(-c2cn3ccnc3nc2-c2ccc(CN3CCC(c4cc(-c5ccccn5)n[nH]4)CC3)cc2)cc1 [Example 5, 6-phenyl-7-(4-{[4-(3-pyridin-2-yl-pyrazol-5-yl)piperidin-1-yl]methyl}phenyl)imidazo[1,2-a]pyrimidine] | < 6.00
6 | > 6.00 | c1ccc(-c2cn3ccnc3nc2-c2ccc(CN3CCC(c4n[nH]c(-c5ccncc5)n4)CC3)cc2)cc1 [Example 6, 6-phenyl-7-(4-{[4-(5-pyridin-4-yl-1,2,4-triazol-3-yl)piperidin-1-yl]methyl}phenyl)imidazo[1,2-a]pyrimidine] | < 6.00
7 | > 6.00 | c1ccc(-c2cn3nc(C4CCC4)nc3nc2-c2ccc(CN3CCC(c4n[nH]c(-c5ccccn5)n4)CC3)cc2)cc1 [Example 7, 2-cyclobutyl-6-phenyl-5-(4-{[4-(5-pyridin-2-yl-1,2,4-triazol-3-yl)piperidin-1-yl]methyl}phenyl)[1,2,4]triazolo[1,5-a]pyrimidine] | > 6.00
8 | > 6.00 | N#Cc1cnc2nc(-c3ccc(CN4CCC(c5n[nH]c(-c6ccccn6)n5)CC4)cc3)c(-c3ccccc3)cn12 [Example 8, 6-phenyl-7-(4-{[4-(5-pyridin-2-yl-1,2,4-triazol-3-yl)piperidin-1-yl]methyl}phenyl)imidazo[1,2-a]pyrimidine-3-carbonitrile] | < 6.00
9 | > 6.00 | Fc1cnc2nc(-c3ccc(CN4CCC(c5n[nH]c(-c6ccccn6)n5)CC4)cc3)c(-c3ccccc3)cn12 [Example 9, 3-fluoro-6-phenyl-7-(4-{[4-(5-pyridin-2-yl-1H-1,2,4-triazol-3-yl)piperidin-1-yl]methyl}phenyl)imidazo[1,2-a]pyrimidine] | > 6.00
10 | 5.00 to 6.00 | CNc1c(-c2ccccc2)c(-c2ccc(CN3CCC(c4n[nH]c(-c5ccccn5)n4)CC3)cc2)nc2nccn12 [Example 10, N-methyl-6-phenyl-7-(4-{[4-(5-pyridin-2-yl-1,2,4-triazol-3-yl)piperidin-1-yl]methyl}phenyl)imidazo[1,2-a]pyrimidin-5-amine] | < 6.00
11 | > 6.00 | Brc1cnc2nc(-c3ccc(CN4CCC(c5n[nH]c(-c6ccccn6)n5)CC4)cc3)c(-c3ccccc3)cn12 [Example 11, 3-bromo-6-phenyl-7-(4-{[4-(5-pyridin-2-yl-1,2,4-triazol-3-yl)piperidin-1-yl]methyl}phenyl)imidazo[1,2-a]pyrimidine] | > 6.00
12 | > 6.00 | Clc1cnc2nc(-c3ccc(CN4CCC(c5n[nH]c(-c6ccccn6)n5)CC4)cc3)c(-c3ccccc3)cn12 [Example 12, 3-chloro-6-phenyl-7-(4-{[4-(5-pyridin-2-yl-1,2,4-triazol-3-yl)piperidin-1-yl]methyl}phenyl)imidazo[1,2-a]pyrimidine] | > 6.00
13 | > 6.00 | C#Cc1cnc2nc(-c3ccc(CN4CCC(c5n[nH]c(-c6ccccn6)n5)CC4)cc3)c(-c3ccccc3)cn12 [Example 13, 3-ethynyl-6-phenyl-7-(4-{[4-(5-pyridin-2-yl-1,2,4-triazol-3-yl)piperidin-1-yl]methyl}phenyl)imidazo[1,2-a]pyrimidine] | > 6.00
14 | > 6.00 | Cc1cnc2nc(-c3ccc(CN4CCC(c5n[nH]c(-c6ccccn6)n5)CC4)cc3)c(-c3ccccc3)cn12 [Example 14, 3-methyl-6-phenyl-7-(4-{[4-(5-pyridin-2-yl-1,2,4-triazol-3-yl)piperidin-1-yl]methyl}phenyl)imidazo[1,2-a]pyrimidine] | > 6.00
15 | > 6.00 | C=Cc1cnc2nc(-c3ccc(CN4CCC(c5n[nH]c(-c6ccccn6)n5)CC4)cc3)c(-c3ccccc3)cn12 [Example 15, 6-phenyl-7-(4-{[4-(5-pyridin-2-yl-1,2,4-triazol-3-yl)piperidin-1-yl]methyl}phenyl)-3-vinylimidazo[1,2-a]pyrimidine] | > 6.00
16 | > 6.00 | CCc1cn2cc(-c3ccccc3)c(-c3ccc(CN4CCC(c5n[nH]c(-c6ccccn6)n5)CC4)cc3)nc2n1 [Example 17, 2-ethyl-6-phenyl-7-(4-{[4-(5-pyridin-2-yl-1,2,4-triazol-3-yl)piperidin-1-yl]methyl}phenyl)imidazo[1,2-a]pyrimidine] | > 6.00
17 | 5.00 to 6.00 | c1ccc(-c2cn3ccnc3nc2-c2ccc(CN3CCC(c4n[nH]c(-c5ncccn5)n4)CC3)cc2)cc1 [Example 18, 6-phenyl-7-(4-{[4-(5-pyrimidin-2-yl-1,2,4-triazol-3-yl)piperidin-1-yl]methyl}phenyl)imidazo[1,2-a]pyrimidine] | < 6.00
